This note sets out measurements from patent EP4671240A1, “SALT CONTAINING AROMATIC RING DERIVATIVE ANTAGONIST, PREPARATION METHOD THEREFOR, AND APPLICATION THEREOF” (Jiangsu Hansoh Pharmaceutical Group Co., Ltd., priority 2023, dated 2024).

The series is described as follows: Liver microsomal metabolism stability assay (human). In kind it is in vitro ADME. As to conditions: compound 1 µM; for half-life at 1 µM: human liver microsomes 0.5 mg/mL, NADPH/UDPGA, read-out: Human t1/2; for Human Remaining rate: human liver microsomes, 60 min. As for the experimental part: The objective of this experiment was to detect the stability of the example compounds in liver microsomes of rats, dogs and humans.
Formulation of compound working solution: compound stock solution was added to phosphate buffer to a final concentration of 20 µM.
Dilution was performed with 100 mM phosphate buffer to a final concentration of 0.625 mg/mL.
NADPH (reduced nicotinamide adenine dinucleotide phosphate) and UDPGA (uridine diphosphate glucuronic acid) were weighed, and 100 mM phosphate buffer was added to a final concentration of 20 mM.
1 mg of Alamethicin was weighed, and 200 µL of DMSO was added to formulate a 5 mg/mL solution. Then dilution was performed with phosphate buffer to a final concentration of 50 µg/mL.
Stop solution: cold acetonitrile containing 100 ng/mL labetalol hydrochloride and 400 ng/mL tolbutamide as internal standards.
400 µL of formulated liver microsomes, 25 µL of compound working solution and 25 µL of Alamethicin were added in sequence to a 96-well plate, and the mixture was pre-incubated at 37°C for 10 min. Then 50 µL of formulated NADPH/UDPGA was added to start the reaction and the mixture was incubated at 37°C. The total volume of the reaction system was 500 µL. The final contents of each component are as follows:
• Instrument: Shimadzu LC-30 AD; • Chromatographic column: XBridge® C18 (50*4.6 mm, 5 µm particle size); • Mobile phase: A: 0.1% formic acid solution, B: methanol • Elution gradient: 0.2-1.6 min 5% A to 95% A, 3.0-3.1 min 95% A to 5% A • Run time: 4.0 min.
• Instrument: API5500 liquid chromatography-mass spectrometer, AB Sciex; • Ion source: electrospray ionization source (ESI); • Drying gas: N2, temperature 500°C; • Electrospray voltage: 5000 V; • Detection mode: positive ion detection; • Scan mode: Multiple Reaction Monitoring (MRM) mode.

With `[2H]C([2H])(c1ccc(-c2ccccc2S(=O)(=O)Nc2noc(C)c2Cl)c(COCC)c1)N1C(=O)C2(CCCC2)N=C1CCCC` [Example 2, 4'-((2-Butyl-4-oxo-1,3-diazaspiro[4.4]non-1-en-3-yl)methyl-d2)-N-(4-chloro-5-methylisoxazol-3-yl)-2'-(ethoxymethyl)-[1,1'-biphenyl]-2-sulfonamide], the half-life at 1 µM came out at 38.5 min and the “Human Remaining rate” value came to 33.0%.
In the same order, the values of `CCCCC1=NC2(CCCC2)C(=O)N1Cc1ccc(-c2ccccc2S(=O)(=O)Nc2noc(C)c2Cl)c(COCC)c1` [Example 8, 2-[4-[(2-Butyl-4-oxo-1,3-diazaspiro[4.4]non-1-en-3-yl)methyl]-2-(ethoxymethyl)phenyl]-N-(4-chloro-5-methyl-isoxazol-3-yl)benzenesulfonamide] are 36.5 min and 32.0%.
